Usually logP stands for the decadic logarithm of the partition coefficient of the neutral form, usually between octanol and water. A lower logP goes with lower lipophilicity. As a reminder, the logD is the decadic logarithm of the distribution of all forms, ionised or not, between an organic phase and buffer at a given pH. Lower therefore signals lower lipophilicity.

SMILES strings stand for the structures.

Settings in one data set: not given
Regarding `CCCCCCNC(=O)COC(=O)c1ccccc1`, the logP was found to be 2.81. On the same count and under the same terms, in the case of `CNC(=O)COC(=O)c1ccccc1` it was 0.99; in that of `C=CCN(CC=C)C(=O)COC(=O)c1ccccc1`, 2.34.

Molecule `CCCCNC(=O)COC(=O)c1ccccc1` registered a log partition coefficient (logP) of 2.36. The same measure, in the same setting: in the case of `CCN(CC)C(=O)C(C)OC(=O)c1ccccc1` (stereo unspecified) it was 2.3; in that of `CCC1CCCCN1C(=O)COC(=O)c1ccccc1` (stereo unspecified), 2.62; in that of `CCCNC(=O)COC(=O)c1ccccc1`, 1.88. On the same count and under the same terms, in the case of `CC(C)(C)NC(=O)COC(=O)c1ccccc1` it was 2.26. Molecule `CC(=O)NC(=O)COC(=O)c1ccccc1` came in with a logP of 1.24. On the same count and under the same terms, in the case of `CCNC(=O)COC(=O)c1ccccc1` it was 1.28. The molecule `CC(C)NC(=O)COC(=O)c1ccccc1` displayed a logP of 1.73. Molecule `NC(=O)COC(=O)c1ccccc1` registered a logP of 0.69. The same measure, in the same setting: in the case of `CC(O)CN(CC(C)O)C(=O)COC(=O)c1ccccc1` (stereo unspecified) it was 0.66.

For `O=C(COC(=O)c1ccccc1)NC(CO)(CO)CO`, the logP worked out at 0.25.

`O=C(OCC(=O)N1CCCCC1)c1ccccc1`: the logP was determined as 1.95.

The molecule `O=C(OCC(=O)N1CCOCC1)c1ccccc1` displayed a logP of 0.9. In turn, `O=C(OCC(=O)N1CCC(O)CC1)c1ccccc1` had a log partition coefficient (logP) of 0.63. The same measure, in the same setting: in the case of `CC(=O)N(C)C(=O)COC(=O)c1ccccc1` it was 1.58; in that of `COCCN(CCOC)C(=O)COC(=O)c1ccccc1`, 1.28. Still for that read-out and setting: in the case of `CCCCCCN(CCCCCC)C(=O)COC(=O)c1ccccc1` it was 6.53; in that of `CC(=O)N(C)CCOC(=O)c1ccccc1`, 1.24. The same measure, in the same setting: in the case of `CC(NC(=O)COC(=O)c1ccccc1)C(N)=O` (stereo unspecified) it was 0.42; in that of `NC(=O)C1CCCN1C(=O)COC(=O)c1ccccc1` (stereo unspecified), 0.2; in that of `CCCCCCN(C)C(=O)COC(=O)c1ccccc1`, 2.99.

Staying with this data set, now noted: pH 2.0.
As to `CN(CC(=O)O)C(=O)COC(=O)c1ccccc1`, the logD was determined as 0.67. Still for that read-out and setting: in the case of `O=C(OCC(=O)N1CCC1C(=O)O)c1ccccc1` (stereo unspecified) it was 0.79.

For the origin of these results see the SangsterLogP compilation.
